Laboratory results published in ChEMBL document CHEMBL1201862, “PubChem BioAssay data set” (2004).
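Step 1: Grow cells in 96-well plates. Step 2: Expose to compound for 48 hours at 5 concentrations. Step 3: Interpolate endpoints linearly; if unreached, use highest concentration. GI50: concentration for 50% inhibition of growth.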 Activity calls are given as the source filed them. No stated cut-off is given here; in the data, active = GI50 up to about 1.1 µM and inactive = higher.

Experiments:
Assay in all cases: NCI-60 cell line screen, 48 h
HT-29 = tested on: HT-29
HCT-15 = tested on: HCT-15
786-0 = tested on: 786-0
CCRF-CEM = tested on: CCRF-CEM
SF-268 = tested on: SF-268
NCI-H460 = tested on: NCI-H460
U-251 = tested on: U-251
UO-31 = tested on: UO-31
LOX IMVI = tested on: LOX IMVI
OVCAR-8 = tested on: OVCAR-8
ACHN = tested on: ACHN
MOLT-4 = tested on: MOLT-4
SK-MEL-28 = tested on: SK-MEL-28
TK-10 = tested on: TK-10
UACC-62 = tested on: UACC-62
Malme-3M = tested on: Malme-3M
Hs-578T = tested on: Hs-578T
NCI-H226 = tested on: NCI-H226
OVCAR-3 = tested on: OVCAR-3
RPMI-8226 = tested on: RPMI-8226
SN12C = tested on: SN12C
CAKI-1 = tested on: CAKI-1
M14 = tested on: M14
MDA-MB-231 = tested on: MDA-MB-231
OVCAR-5 = tested on: OVCAR-5
KM12 = tested on: KM12
IGROV-1 = tested on: IGROV-1
HOP-92 = tested on: HOP-92
A549 = tested on: A549
K562 = tested on: K562
MCF7 = tested on: MCF7
SF-295 = tested on: SF-295
MDA-N = tested on: MDA-N
HCT-116 = tested on: HCT-116
SK-OV-3 = tested on: SK-OV-3
SNB-19 = tested on: SNB-19
UACC-257 = tested on: UACC-257
EKVX = tested on: EKVX
NCI/ADR-RES = tested on: NCI/ADR-RES
NCI-H23 = tested on: NCI-H23
SK-MEL-5 = tested on: SK-MEL-5
HL-60 = tested on: HL-60
SW-620 = tested on: SW-620
A498 = tested on: A498
OVCAR-4 = tested on: OVCAR-4
HOP-62 = tested on: HOP-62
COLO 205 = tested on: COLO 205
SNB-75 = tested on: SNB-75
DU-145 = tested on: DU-145
NCI-H522 = tested on: NCI-H522
RXF 393 = tested on: RXF 393
SF-539 = tested on: SF-539
MDA-MB-435 = tested on: MDA-MB-435
PC-3 = tested on: PC-3
SK-MEL-2 = tested on: SK-MEL-2
HCC 2998 = tested on: HCC 2998
SR = tested on: SR
T47D = tested on: T47D

COc1cc2c(cc1OC)CC(=O)c1cc(OC)c(OC)cc1/C=C\2
GI50 (HT-29): 5.79 µM (inactive)
GI50 (HCT-15): 5.85 µM
GI50 (786-0): > 12.5 µM (inactive)
GI50 (CCRF-CEM): > 12.5 µM (inactive)
GI50 (SF-268): > 12.5 µM (inactive)
GI50 (NCI-H460): > 12.5 µM (inactive)
GI50 (U-251): > 12.5 µM (inactive)
GI50 (UO-31): > 12.5 µM (inactive)
GI50 (LOX IMVI): > 12.5 µM (inactive)
GI50 (OVCAR-8): > 12.5 µM (inactive)
GI50 (ACHN): > 12.5 µM (inactive)
GI50 (MOLT-4): 9.93 µM (inactive)
GI50 (SK-MEL-28): > 12.5 µM (inactive)
GI50 (TK-10): > 12.5 µM (inactive)
GI50 (UACC-62): > 12.5 µM (inactive)
GI50 (Malme-3M): 2.93 µM (inactive)
GI50 (Hs-578T): > 12.5 µM (inactive)
GI50 (NCI-H226): > 12.5 µM (inactive)
GI50 (OVCAR-3): > 12.5 µM (inactive)
GI50 (RPMI-8226): > 12.5 µM (inactive)
GI50 (SN12C): > 12.5 µM (inactive)
GI50 (CAKI-1): > 12.5 µM (inactive)
GI50 (M14): 9.57 µM (inactive)
GI50 (MDA-MB-231): > 12.5 µM (inactive)
GI50 (OVCAR-5): > 12.5 µM (inactive)
GI50 (KM12): 4.55 µM (inactive)
GI50 (IGROV-1): 10.8 µM (inactive)
GI50 (HOP-92): > 12.5 µM (inactive)
GI50 (A549): > 12.5 µM (inactive)
GI50 (K562): 3.45 µM (inactive)
GI50 (MCF7): > 12.5 µM (inactive)
GI50 (SF-295): 7.16 µM (inactive)
GI50 (MDA-N): 2.8 µM (inactive)
GI50 (HCT-116): > 12.5 µM (inactive)
GI50 (SK-OV-3): > 12.5 µM (inactive)
GI50 (SNB-19): > 12.5 µM (inactive)
GI50 (UACC-257): > 12.5 µM (inactive)
GI50 (EKVX): > 12.5 µM (inactive)
GI50 (NCI/ADR-RES): > 12.5 µM (inactive)
GI50 (NCI-H23): > 12.5 µM (inactive)
GI50 (SK-MEL-5): 7.74 µM (inactive)
GI50 (HL-60): 2.24 µM (inactive)
GI50 (SW-620): 6.37 µM (inactive)
GI50 (A498): > 12.5 µM (inactive)
GI50 (OVCAR-4): > 12.5 µM (inactive)
GI50 (HOP-62): > 12.5 µM (inactive)
GI50 (COLO 205): 11.1 µM (inactive)
GI50 (SNB-75): 4.83 µM (inactive)
GI50 (DU-145): > 12.5 µM (inactive)
GI50 (NCI-H522): 9.44 µM (inactive)
GI50 (RXF 393): > 12.5 µM (inactive)
GI50 (SF-539): > 12.5 µM (inactive)
GI50 (MDA-MB-435): 3.92 µM (inactive)
GI50 (PC-3): > 12.5 µM (inactive)
GI50 (SK-MEL-2): > 12.5 µM (inactive)

CC(=O)O[C@H]1CN(S(=O)(=O)c2ccc(C)cc2)C[C@@H]1C1CCCCC1
GI50 (HT-29): 24.4 µM (inactive)
GI50 (HCT-15): 28.4 µM
GI50 (CCRF-CEM): 37.5 µM (inactive)
GI50 (SF-268): 26.7 µM (inactive)
GI50 (NCI-H460): 31.7 µM (inactive)
GI50 (U-251): 29.7 µM (inactive)
GI50 (UO-31): 38.2 µM (inactive)
GI50 (LOX IMVI): 21.6 µM (inactive)
GI50 (OVCAR-8): 22.7 µM (inactive)
GI50 (ACHN): 36.9 µM (inactive)
GI50 (MOLT-4): 28.5 µM (inactive)
GI50 (SK-MEL-28): 20.5 µM (inactive)
GI50 (TK-10): 21.9 µM (inactive)
GI50 (UACC-62): 22.6 µM (inactive)
GI50 (Hs-578T): 18.9 µM (inactive)
GI50 (NCI-H226): 16.7 µM (inactive)
GI50 (OVCAR-3): 18 µM (inactive)
GI50 (RPMI-8226): 33.1 µM (inactive)
GI50 (CAKI-1): 45.8 µM (inactive)
GI50 (M14): 17.7 µM (inactive)
GI50 (MDA-MB-231): 51.4 µM (inactive)
GI50 (OVCAR-5): 39 µM (inactive)
GI50 (KM12): 17.9 µM (inactive)
GI50 (IGROV-1): 18.8 µM (inactive)
GI50 (HOP-92): 23.2 µM (inactive)
GI50 (K562): 32.9 µM (inactive)
GI50 (MCF7): 20.8 µM (inactive)
GI50 (SF-295): 14.4 µM (inactive)
GI50 (MDA-N): 25.5 µM (inactive)
GI50 (HCC 2998): 45.6 µM (inactive)
GI50 (SK-OV-3): 43.7 µM (inactive)
GI50 (SNB-19): 55.3 µM (inactive)
GI50 (UACC-257): 18 µM (inactive)
GI50 (EKVX): 17 µM (inactive)
GI50 (NCI/ADR-RES): 19.5 µM (inactive)
GI50 (NCI-H23): 36.3 µM (inactive)
GI50 (SK-MEL-5): 10.6 µM (inactive)
GI50 (SR): 18.6 µM (inactive)
GI50 (SW-620): 26.1 µM (inactive)
GI50 (A498): > 100 µM (inactive)
GI50 (OVCAR-4): 31.9 µM (inactive)
GI50 (T47D): 40.6 µM (inactive)
GI50 (HOP-62): 35.8 µM (inactive)
GI50 (COLO 205): 46.8 µM (inactive)
GI50 (SNB-75): 24.9 µM (inactive)
GI50 (DU-145): 32.9 µM (inactive)
GI50 (SF-539): < 0.01 µM (active)
GI50 (MDA-MB-435): 27.9 µM (inactive)
GI50 (PC-3): 20.1 µM (inactive)
GI50 (SK-MEL-2): 18.7 µM (inactive)
